Source: patent US20100267928A1, “ACTIVATABLE DIAGNOSTIC AND THERAPEUTIC COMPOUND” (priority 2007, published 2010)

System: LN18 and U373 glioma cells
Conditions: additive alone in RPMI medium, LN18 and U373 glioma cells
Protocol: Human malignant glioma cells (U373 and LN18) were seated into 25 cm^2 culture flasks which contained 3 ml RPMI medium. This was left as it is for one day so that enough matrix metalloprotenases (MMP-2) could accumulate.
In a second test the same compounds were again dissolved in the media of 12 flasks (130 μM), however now with MMP-2 inhibitor I (Calbiochem).
As a control four small flasks were used wherein both cell lines were incubated in a one day old medium with and also without APMA.
For the confocal laser scanning microscopy an inverted LSM510 laser scanning microscope (Karl Zeiss, Jena, Deutschland) (Objectives: LD Achroplan 40×0.6, Plan Neofluar 20×0.50, 40×0.75) was used [fluorescence excitation at 488 nm (argon-ion laser) and […] (helium-neon laser)]. Superimposed images of FITC- and alexa-stained cells were produced. All measurements were performed on living, non-fixed cells for three times.

CCCCCCCC/C=C\CCCCCCCC(=O)NO [MMP-2 inhibitor I, reference compound] was tested, and the “damage of the cell vitality by additive in the medium” value was “did not result in a damage of the cell vitality”.
